Reference: article PMC6017928, “Informing Efforts to Develop Nitroreductase for Amine Production” (Molecules : A Journal of Synthetic Chemistry and Natural …, 2018)

Key:
StNfsB = biological target: T1, StNfsB (Salmonella enterica, UniProt P15888); assay: NADH oxidation at […] nm; Michaelis-Menten fit; type: biochemical; settings: 0.5 mM NADH, 25 °C
T1 construct: gene nfsB; full length, 217 residues; untagged purification (ammonium sulfate, DEAE, Sephacryl); E. coli BL21(DE3), pET-28a; FMN-reconstituted; homodimer
T1 sequence (P15888 1-217): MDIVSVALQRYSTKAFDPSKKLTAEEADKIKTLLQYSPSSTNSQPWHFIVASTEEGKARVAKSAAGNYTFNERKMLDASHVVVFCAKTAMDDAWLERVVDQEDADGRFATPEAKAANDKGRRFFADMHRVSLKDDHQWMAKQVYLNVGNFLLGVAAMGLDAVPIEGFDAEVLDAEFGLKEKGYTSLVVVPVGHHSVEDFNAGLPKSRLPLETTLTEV

MsPnbA = biological target: T2, MsPnbA (Mycolicibacterium smegmatis, UniProt A0R6D0); assay: NADH oxidation, initial rates in microtiter plate; Michaelis-Menten fit; type: biochemical; settings: NADH co-substrate, 25 °C; only normalised kcat/KM used in text
T2 construct: gene nfnB; C-terminal poly-His tag; E. coli BL21(DE3), pET-28a; Ni-NTA, FMN-reconstituted
T2 sequence (A0R6D0 whole entry): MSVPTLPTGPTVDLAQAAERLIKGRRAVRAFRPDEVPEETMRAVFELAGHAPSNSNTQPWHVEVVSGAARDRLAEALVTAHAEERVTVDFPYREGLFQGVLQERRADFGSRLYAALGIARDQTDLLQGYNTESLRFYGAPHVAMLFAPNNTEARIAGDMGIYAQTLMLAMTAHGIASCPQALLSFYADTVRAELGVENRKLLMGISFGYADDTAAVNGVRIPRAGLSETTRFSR

Question: Which “NADH oxidation at 370 nm; Michaelis-Menten fit” value (StNfsB) does the source give for `O=[N+]([O-])c1ccccc1` [compound 1, nitrobenzene] here?
Answer: The value was “dividing by the rate measured for the unsubstituted parent compound: nitrobenzene”.

Question: What about the “NADH oxidation, initial rates in microtiter plate; Michaelis-Menten fit” value (MsPnbA) of the same compound?
Answer: The value was “dividing by the rate measured for the unsubstituted parent compound: nitrobenzene”.
